# Measured values as given in patent US12274728B2, “Preparation comprising omega-3 fatty acid salts and extracts of gum resins from Boswellia species” (Evonik Operations GmbH, priority 2019, dated 2025).
# Test system: human monocyte-derived M1 macrophages
# Assay: Lipid mediator (LM) formation in human monocyte-derived M1 macrophages, UPLC-MS-MS
# Type: cell-based
# Details: M1, single agents: extracts 50 μg/mL, AKBA 10 μM, AvailOm® 3 μg/mL, 180 min (FIG. 1)
# Description: Leukocyte concentrates from freshly withdrawn peripheral blood of healthy adult human donors were provided by the Institute of Transfusion Medicine, University Hospital Jena, Germany. The experimental protocol was approved by the ethical committee of the University Hospital Jena. All methods were performed in accordance with the relevant guidelines and regulations. Peripheral blood mononuclear cells (PBMC) were isolated using dextran sedimentation and Ficoll-Histopaque 1077-1 (Sigma-Aldrich, Taufkirchen, Germany) centrifugation. For differentiation and polarization towards M1 and M2, published criteria were used. […]
# Macrophages (2×10^6/ml) were incubated in PBS containing 1 mM CaCl2). […] Supernatants were transferred to 2 ml of ice-cold methanol containing 10 μl of deuterium-labeled internal standards (200 nM […], d4-LTB4, d5-LXA4, d5-RvD2, d4-PGE2 and 10 μM d8-AA) to facilitate quantification. […] LM profiling was analyzed with an Acquity™ UPLC system (Waters, Milford, MA) and a QTRAP 5500 Mass Spectrometer (ABSciex, Darmstadt, Germany) equipped with a Turbo VTM Source and electrospray ionization (ESI). […] Quantification was achieved by calibration curves for each LM. […]
substance,measurement,value
3-O-acetyl-11-keto-beta-boswellic acid [AKBA],LM formation / LM biosynthesis,did not significantly elevate
